Experimental data taken from patent US9931350B2, “Anti-infective and osteogenic compositions and methods of use” (BRIGHAM YOUNG UNIVERSITY, priority 2014, dated 2018).
≈ marks a conversion by molar mass, not a printed value.

Tests used:
[1] = system: methicillin-resistant S. aureus (MRSA); assay: MIC against methicillin-resistant S. aureus; assay type: cell-based; conditions: Staphylococcus aureus, TSB, 37° C., 24 hours
Method: (§1) Representative Procedure for Measuring MIC Values: A suspension is prepared of bacteria containing ˜10^6CFU (colony forming units)/mL from a culture incubated in TSB at 37° C. for 24 hours. Aliquots of 1 mL of the suspension are added to test tubes containing 1 mL TSB and incrementally varied concentrations of CSA compound. The samples are subjected to stationary incubation at 37° C. for 24 hours. Sample turbidity is determined by measuring absorption at 760 nm (HP 8453 UV-Visible Chemstation, Hewlett Packard). Additionally, an alliquot from each of the samples showing no measurable turbidity is subcultured on TSA plates (alliquots were diluted to provide fewer than 300 CFU). Colonies that grow on the subculture after overnight incubation are counted and the number of CFU/mL in the samples is calculated. The calculated values are compared to the number of CFU/mL in the original inoculum. MIC values are determined as the concentrations of the studied compounds at which the number of CFU/mL remained constant or decreased after incubation for 24 hours. CSA compounds were screened against methicillin-resistant S. aureus (MRSA) and tobramycin-resistant P. aeruginosa (TRPA).

[2] = system: tobramycin-resistant P. aeruginosa (TRPA); assay: MIC against tobramycin-resistant P. aeruginosa; assay type: cell-based; conditions: Pseudomonas aeruginosa; TSB, 37° C., 24 hours
Method: as §1

ectopic bone formation = assay: Mammalian ectopic bone formation model; assay type: in vivo, mouse
Excerpt: Bone formation was examined by XR (Faxitron) and quantified by microCT (Skyscan 1174). Bone nodules were also examined by histology.

open fracture = assay: Mammalian open fracture model, without bacteria inoculation; assay type: in vivo, rats
Excerpt: (§2) In this model, infection was initiated by delivery of 10^4 CFU of pathogenic Staphlococcus aureus in ACS at the time of surgery. […] The primary outcome measure was the number of animals culled with infected fractures. Animal health and radiographic bone healing were monitored by an experienced veterinarian in a blinded fashion to inoculation or treatment. Animals diagnosed as having progressively deteriorating condition with XRs showing evidence of infection were culled and infection confirmed by culture swab post-mortem. Secondary outcome measures included union at 3 weeks and 6 weeks (excluding pin-slippage), and bone callus microCT measures at 6 weeks.

Staphlococcus aureus = assay: Mammalian open fracture model, inoculated with S. aureus; assay type: in vivo, rats
Excerpt: as §2

SMILES: CCCCCN(CCCCC)CCC[C@@H](C)[C@H]1CC[C@H]2[C@@H]3[C@H](OCCCN)C[C@@H]4C[C@H](OCCCN)CC[C@]4(C)[C@H]3C[C@H](OCCCN)[C@]12C [CSA-90]
- MIC [1]: 0.6 µg/mL (≈ 0.851 µM)
- MIC [2]: 3 µg/mL (≈ 4.25 µM)
- Mean bone volume by microCT (ectopic bone formation; 25 μg CSA-90 added to 10 μg rhBMP-2 in ACS, P=0.02): significantly increased
- Mean bone volume by microCT (ectopic bone formation; 250 μg CSA-90 added to 10 μg rhBMP-2 in ACS, P<0.01): significantly increased
- Osteoclast number, histological assessment (ectopic bone formation; CSA-90 treatment): no significant decrease
- Histological assessment of bone nodules (ectopic bone formation; rhBMP-2 treated groups, CSA-90 treatment alone (250 μg)): evidence of localized tissue mineralization
- Union rate at 3 weeks (open fracture; 3 weeks, treated groups with and without inoculation): ~50%
- Union rate by 6 weeks (open fracture; 6 weeks): increased but not to 100%
- Pin Slip Cull Rate (open fracture; no bacteria): 0%
- Infected Cull Rate (open fracture; no bacteria, 250 μg CSA-90 and/or 10 μg rhBMP-2 via ACS): 0%
- # Infected Culls (open fracture; no bacteria, animals/group): 0/6
- # Pin Slips (open fracture; no bacteria, animals/group): 0/6
- Pin Slip Cull Rate (Staphlococcus aureus; 10^4 cfu Staph): 20%
- Infected Cull Rate (Staphlococcus aureus; 10^4 cfu Staph, 250 μg CSA-90 and/or 10 μg rhBMP-2 via ACS): 0%
- # Infected Culls (Staphlococcus aureus; 10^4 cfu Staph, animals/group): 0/5
- # Pin Slips (Staphlococcus aureus; 10^4 cfu Staph, animals/group): 1/5
- Animals culled with a pin slip (no infection seen in culture) (Staphlococcus aureus; inoculated group): one
- Animals culled with infected fractures (Staphlococcus aureus; inoculated with S. aureus): no infected culls

SMILES: CCCCCCCCN(CCCCCCCC)CCC[C@@H](C)[C@H]1CC[C@H]2[C@@H]3[C@H](OCCCN)C[C@@H]4C[C@H](OCCCN)CC[C@]4(C)[C@H]3C[C@H](OCCCN)[C@]12C [CSA-91]
- MIC [1]: 5 µg/mL (≈ 6.33 µM)
- MIC [2]: 6 µg/mL (≈ 7.6 µM)
